In patent US8778937B2, “Benzimidazole boronic acid derivatives as PI3 kinase inhibitors” (GlaxoSmithKline LLC, priority 2011, dated 2014) one finds EC50 data, which are given here for 20 compounds.

The structures appear in SMILES notation.

For this assay, the system named is MDA-MB-468. Briefly: Cell growth inhibition in PTEN-deficient cell line MDA-MB-468, anchorage independent, Alamar Blue. The format is cell-based. To be noted: Homo sapiens, 144 h, MDA-MB-468, anchorage independent (soft agar), 6 days incubation, read-out: Prolif EC50 (nM) MDA-MB-468. Here is the method:
Cellular Assays—Cell Growth Inhibition in PTEN-Deficient Cell Line MDA-MB-468
PTEN deficient tumor cell lines (MDA-MB-468) were cultured generally according to instructions supplied by cell culture supplier American Type Culture Collection, Manassas, Va., with 10% fetal bovine serum at 5% CO2 and 37° C. Cells were seeded into either a T-75 or a T-175 flask 3-4 days prior to 96-well assay plating such that the flasks were approximately 70-80% confluent of the time of harvest. Cells were harvested using 0.25% trypsin-EDTA (Invitrogen #25200056). Trypan Blue exclusion staining was used to determine cell number.
Viable cells were plated in clear, flat bottom 96-well plates (BD #353075) under anchorage independent conditions at 2,000-10,000 cells per well depending on the cell line. To generate anchorage independent growth conditions, a 5% agar stock solution in water was made and autoclaved to melt and sterilize. From the 5% agar solution, a 0.6% agar/media+10% fetal bovine serum (FBS) solution was made to generate a bottom agar layer in the plates to prevent cell attachment. Seventy five microliters per well of the 0.6% agar-media solution was added to the plates. After solidification, a cell solution of 266,870 to 1,334,022 cells (depending on the cell line) in 10 ml of 0.3% agar/media+10% FBS was made and 75 μl of the cell/media/agar suspension was added to the plates. After the cell layer solidified, 50 μl of media+10% FBS was added to the top of the cells. A 0.3% Brij 35 (Sigma B4184) solution in media+10% FBS was added to column 12 as a background subtraction control. The cells were incubated overnight at 5% CO2 and 37° C. The next day one plate of cells was processed at the time of compound addition to quantify the starting number of cells (T=0 or T0).
To generate the compound titration plates, 15 μl of a 2 mM or 20 μl of a 20 mM solution of the compound of example 31 was diluted in clear bottom polypropylene 96-well plate (BD #351190) using a 10 point, 3-fold titration or a 20 point 2-fold titration, respectively. Three hundred microliters of media was added to the compound dilutions. Ten microliters per well of the serial dilutions was added to the cells and the plates incubated for 6 days at 5% CO2 and 37° C. The final concentration of DMSO in all wells was 0.15% and the highest final concentration of the compound of example 31 was 3.7 μM or 30.7 μM.
Following the 6-day incubation, 20 μl of Alamar Blue (Invitrogen #DAL1100) was added to the cells, incubated at 5% CO2 and 37° C. for 6 hours and the plates read on a Spectramax (Gemini EM) at 530 nm (excitation) and 590 nm (emission) with the auto cut-off disabled. For analysis of cell growth inhibition dose response curves, the data was plotted as the percent of the DMSO-treated control samples (DMSO samples set to 100%). The cellular response was determined for compounds and control compounds by fitting the concentration response with a 4 parameter curve fit using XLfit software and determining the concentration that inhibits 50% of the Ymax-Ymin window (EC50). The EC50 is the midpoint of active compound effect window (between Ymax plateau and Ymin plateau of compound) and represents the concentration of the compound of example 31 where 50% of its maximal effect is observed. Values from wells containing 0.3% Brij 35 (under anchorage independent conditions) were subtracted from all samples for background correction.
The compounds listed in Table 3 were tested generally according to the assays described herein. Table 3 lists the EC50 values for either an experimental run or an average of two or more experimental runs with the examples shown.
On the technique in general: The colour change of resazurin is a common sign of viable cells or microbes.
Turning to `Cc1c(Cn2c(C)nc3c(B(O)O)cc(N4CCOCC4)cc32)cccc1C(F)(F)F` [Example 4, (2-methyl-1-(2-methyl-3-(trifluoromethyl)benzyl)-6-morpholino-1H-benzo[d]imidazol-4-yl)boronic acid], the EC50 stood at 11.1 nM.
As for `Cc1c(Cl)cccc1Cn1c(C)nc2c(B(O)O)cc(N3CCOCC3)cc21` [Example 5, (1-(3-chloro-2-methylbenzyl)-2-methyl-6-morpholino-1H-benzo[d]imidazol-4-yl)boronic acid], the figure is 6.7 nM; as for `Cc1nc2c(B(O)O)cc(N3CCOCC3)cc2n1Cc1cccc2ccccc12` [Example 6, (2-methyl-6-morpholino-1-(naphthalen-1-ylmethyl)-1H-benzo[d]imidazol-4-yl)boronic acid], 22.3 nM.
As to `Cc1cccc(Cn2c(C)nc3c(B(O)O)cc(N4CCOCC4)cc32)c1C` [Example 7, (1-(2,3-dimethylbenzyl)-2-methyl-6-morpholino-1H-benzo[d]imidazol-4-yl)boronic acid], the EC50 turned out to be 18.3 nM.
Consider `Cc1nc2c(B(O)O)cc(N3CCOCC3)cc2n1Cc1cccc(Cl)c1Cl` [Example 8, (1-(2,3-dichlorobenzyl)-2-methyl-6-morpholino-1H-benzo[d]imidazol-4-yl)boronic acid], for which the EC50 was 42 nM.
Under `Cc1nc2c(B(O)O)cc(N3CCOCC3)cc2n1Cc1cccc2ccsc12` [Example 9] stands 88.2 nM; under `Cc1cccc(Cn2c(C)nc3c(B(O)O)cc(N4CCOCC4)cc32)c1` [Example 10, (2-methyl-1-(3-methylbenzyl)-6-morpholino-1H-benzo[d]imidazol-4-yl)boronic acid], 1880 nM.
On to `Cc1ccccc1Cn1c(C)nc2c(B(O)O)cc(N3CCOCC3)cc21` [Example 11, (2-methyl-1-(2-methylbenzyl)-6-morpholino-1H-benzo[d]imidazol-4-yl)boronic acid], for which the EC50 was found to be 1140 nM.
`Cc1nc2c(B(O)O)cc(N3CCOCC3)cc2n1Cc1ccccc1Cl` [Example 12, (1-(2-chlorobenzyl)-2-methyl-6-morpholino-1H-benzo[d]imidazol-4-yl)boronic acid]: the EC50 worked out at 3580 nM.
For the compound `Cc1nc2c(B(O)O)cc(N3CCOCC3)cc2n1Cc1cccc(Cl)c1` [Example 13, (1-(3-chlorobenzyl)-2-methyl-6-morpholino-1H-benzo[d]imidazol-4-yl)boronic acid], the EC50 was 246 nM.
As for `Cc1c(Cn2cnc3c(B(O)O)cc(N4CCOCC4)cc32)cccc1C(F)(F)F` [Example 14, (1-(2-methyl-3-(trifluoromethyl)benzyl)-6-morpholino-1H-benzo[d]imidazol-4-yl)boronic acid], the figure is 62.8 nM; as for `Cc1c(Cl)cccc1Cn1cnc2c(B(O)O)cc(N3CCOCC3)cc21` [Example 15, (1-(3-chloro-2-methylbenzyl)-6-morpholino-1H-benzo[d]imidazol-4-yl)boronic acid], 60 nM.
Under `Cc1c(Cn2c(CF)nc3c(B(O)O)cc(N4CCOCC4)cc32)cccc1C(F)(F)F` [Example 16, (2-(fluoromethyl)-1-(2-methyl-3-(trifluoromethyl)benzyl)-6-morpholino-1H-benzo[d]imidazol-4-yl)boronic acid] stands 21.5 nM; under `Cc1c(Cl)cccc1Cn1c(CF)nc2c(B(O)O)cc(N3CCOCC3)cc21` [Example 17, (1-(3-chloro-2-methylbenzyl)-2-(fluoromethyl)-6-morpholino-1H-benzo[d]imidazol-4-yl)boronic acid], 17.8 nM; under `Cc1c(Cn2c(CO)nc3c(B(O)O)cc(N4CCOCC4)cc32)cccc1C(F)(F)F` [Example 18, (2-(hydroxymethyl)-1-(2-methyl-3-(trifluoromethyl)benzyl)-6-morpholino-1H-benzo[d]imidazol-4-yl)boronic acid], 13.5 nM.
As for `Cc1c(Cl)cccc1Cn1c(C(F)F)nc2c(B(O)O)cc(N3CCOCC3)cc21` [Example 19, (1-(3-chloro-2-methylbenzyl)-2-(difluoromethyl)-6-morpholino-1H-benzo[d]imidazol-4-yl)boronic acid], the figure is 31.5 nM.
As to `Cc1c(Cn2c(C(F)F)nc3c(B(O)O)cc(N4CCOCC4)cc32)cccc1C(F)(F)F` [Example 20, (2-(difluoromethyl)-1-(2-methyl-3-(trifluoromethyl)benzyl)-6-morpholino-1H-benzo[d]imidazol-4-yl)boronic acid], the EC50 amounted to 39.8 nM.
As for `Cc1c(Cl)cccc1Cn1c(C(F)(F)F)nc2c(B(O)O)cc(N3CCOCC3)cc21` [Example 21, (1-(3-chloro-2-methylbenzyl)-6-morpholino-2-(trifluoromethyl)-1H-benzo[d]imidazol-4-yl)boronic acid], the figure is 130 nM.
As for `Cc1c(Cn2c(C(C)C)nc3c(B(O)O)cc(N4CCOCC4)cc32)cccc1C(F)(F)F` [Example 22, (2-isopropyl-1-(2-methyl-3-(trifluoromethyl)benzyl)-6-morpholino-1H-benzo[d]imidazol-4-yl)boronic acid], the figure is 161 nM.
As to `Cc1c(Cn2c(C3CC3)nc3c(B(O)O)cc(N4CCOCC4)cc32)cccc1C(F)(F)F` [Example 23, (2-cyclopropyl-1-(2-methyl-3-(trifluoromethyl)benzyl)-6-morpholino-1H-benzo[d]imidazol-4-yl)boronic acid], the 50% effective concentration (EC50) stood at 126 nM.

Usually EC50 stands for the concentration needed to bring the measured effect to its halfway point.
